Test results: ChEMBL document CHEMBL1152039, “PIPERIDINE CARBOXYLIC ACID DERIVATIVES AS SIALYL LEWIS X MIMETICS” (Bioorg Med Chem Lett, 1997)

Assays:
Rattus norvegicus [1] = assay: Tested for the inhibition of leukocyte adhesion in rat mesenteric venules in vivo at a dose of 3 mg/kg measured by intravital microscopy.; type: functional
HL-60 [2] = assay: Tested for the inhibition of HL60 cell adhesion to recombinant E-selectin-IgG fusion protein measured by cell culture assay.; type: functional, cell-based; conditions: Homo sapiens
HL-60 [3] = assay: Tested for the inhibition of HL60 cell adhesion to recombinant P-selectin-IgG fusion protein measured by cell culture assay.; type: functional, cell-based; conditions: Homo sapiens
Rattus norvegicus [4] = assay: Tested for the inhibition of leukocyte adhesion in rat mesenteric venules in vivo at a dose of 10 mg/kg measured by intravital microscopy.; type: functional
Oryctolagus cuniculus [5] = species on record: Oryctolagus cuniculus; assay: Percent incidence of heart arrhythmia and Ventricular fibrillation in isolated rabbit hearts at a concentration of 1 uM.; type: functional
Rattus norvegicus [6] = assay: Tested for the inhibition of leukocyte adhesion in rat mesenteric venules in vivo at a dose of 1 mg/kg measured by intravital microscopy.; type: functional
Oryctolagus cuniculus [7] = species on record: Oryctolagus cuniculus; assay: Percent incidence of heart arrhythmia and Ventricular fibrillation in isolated rabbit hearts at a concentration of 3 uM.; type: functional

Structure (SMILES)	IC50 (HL-60 [2]) [mM]	IC50 (HL-60 [3]) [mM]	inhibition in vivo at 3 mg/kg (Rattus norvegicus [1]) [%]	inhibition in vivo at 10 mg/kg (Rattus norvegicus [4]) [%]	Incidence (Oryctolagus cuniculus [5]) [%]	inhibition in vivo at 1 mg/kg (Rattus norvegicus [6]) [%]	Incidence (Oryctolagus cuniculus [7]) [%]
O=C(O)C1CCN(C(=O)O[C@@H]2CCCC[C@H]2O[C@@H]2O[C@@H](CO)[C@H](O)[C@H](O)[C@H]2O)CC1	5	> 10	38				
O=C(O)C1CCN(C(=O)O[C@@H]2CCCC[C@H]2O[C@H]2O[C@@H](CO)[C@@H](O)[C@H](O)[C@H]2O)CC1	> 10	> 10	56				
CC(=O)N[C@H]1[C@H]([C@@H](O)[C@@H](O)CO)O[C@@](O[C@@H]2[C@H](O)[C@H](O[C@H]3[C@H](O[C@@H]4O[C@@H](C)[C@@H](O)[C@H](O)[C@@H]4O)[C@H](NC(C)=O)C(O)O[C@H]3CO)O[C@@H](CO)[C@@H]2O)(C(=O)O)C[C@H]1O (some centres undefined)				63		57	50

The next lines start with results.

IC50 (HL-60 [2]) [mM]	IC50 (HL-60 [3]) [mM]	Structure (SMILES)	inhibition in vivo at 3 mg/kg (Rattus norvegicus [1]) [%]	inhibition in vivo at 10 mg/kg (Rattus norvegicus [4]) [%]	Incidence (Oryctolagus cuniculus [5]) [%]	inhibition in vivo at 1 mg/kg (Rattus norvegicus [6]) [%]	Incidence (Oryctolagus cuniculus [7]) [%]
> 5	> 5	CC1OC(OC2CCCCC2OC(=O)N2CCC(C(=O)O)CC2)C(O)C(O)C1O (centres undefined)	69	81	50	64	
1.6	7.5	CC1OC(OC2CCCCC2OC(=O)N2CCC(C(=O)O)(C(=O)O)CC2)C(O)C(O)C1O (centres undefined)	49		50		
